Measured values taken from patent US20230330134A1, “METHOD OF PROPHYLAXIS OF CORONAVIRUS AND/OR RESPIRATORY SYNCYTIAL VIRUS INFECTION” (Starpharma Pty Ltd., priority 2020, published 2023).
Like-named read-outs stand apart in the source and are kept apart here.

Legend:
[1] = target: SARS-CoV-2 spike RBD recombinant protein (Severe acute respiratory syndrome coronavirus 2, UniProt P0DTC2); type: cell-based; conditions: 1 mg/mL in PBS, 1 hour prior to challenge; confocal microscopy
[2] = tested on: SARS-CoV-2 2019-nCoV/USA-WAl/2020; test: Antiviral activity in primary human bronchial epithelial cells (HBEpC); type: cell-based; conditions: 1.1, 3.3 and 10 mg/mL added 1 hour prior to infection, day 4, maximum
[3] = tested on: MERS-CoV (HCoV-EMC) Spike-pseudotyped GFP reporter lentiviral particles; type: cell-based
[4] = tested on: SARS-CoV-2 (2019-nCoV/USA-WA1/2020); test: Virucidal evaluation with neutralization through sucrose cushion, plaque assay; type: cell-based; conditions: for Reduction vs. Virus Control (%) / Reduction vs. Virus Control (Log10± SD): 10 mg/mL
[5] = tested on: Coronavirus strain NL63 (ZeptoMetrix Corp. #0810228CF); conditions: final 28.76 mg/mL; for CPE in four replicates, Test: Vero
[6] = tested on: SARS-CoV-2 (2019-nCoV/USA-WA1/2020); test: microbe, parasite or virus in culture; type: cell-based; conditions: Day 4 post-infection
[7] = tested on: SARS-CoV-2 (hCoV-19/Australia/VIC01/2020); conditions: mixed with virus for 1 hour prior to infection of Vero E6 cells; n=1
[8] = tested on: Human Respiratory Syncytial Virus; test: Antiviral pre-treatment and post-treatment plaque tests (RSV); type: cell-based, Human respiratory syncytial virus (HRSV); conditions: Hep-2 cells
Description: The concentrations of the Test Product were prepared using approximately 1:3 dilutions from the starting concentration determined following the cytotoxicity test.
The host cell culture was washed with PBS, and 1.0 mL aliquots of test product dilutions added to the cells. Cells were then incubated for 1 hour ± 15 minutes for equilibration. After the incubation, 1.0 mL aliquots of virus was added to the wells and incubated for 1 hour ± 15 minutes for virus adsorption. Following incubation, the mixture was removed and replaced with TM. The plates were then incubated in a CO2 incubator. The plates were incubated until viral plaques in the virus control could be microscopically registered (approximately 5-10 days).
Fixed cells were stained using Crystal Violet stain. Unstained zones of cell lysis (viral plaques) were counted.
The concentrations of the test product were prepared using approximately 1:3 dilutions from the starting concentration determined following the cytotoxicity test.
The host cell culture was washed with PBS, and 1.0 mL aliquots of virus added to the wells and incubated for 1 hour ± 15 minutes for virus adsorption. After incubation, virus inoculum was removed and replaced with aliquots of the test product concentrations in TM. The plates were then incubated in a CO2 incubator. The plates were then incubated until viral plaques in the virus control can be microscopically registered (approximately 5-10 days).
For the cell culture control, intact cell culture monolayers were used as the control of cell viability. The GM was replaced by TM in the cell culture control wells. […] Fixed cells were stained using Crystal Violet stain. Unstained zones of cell lysis (viral plaques) were counted.
Assessment of antiviral properties: The antiviral properties EC50 and/or EC90 was determined using non-linear regression analysis, GraphPad Prism 5.0 software.

Vero E6 cells = conditions: Day 4
[9] = Hygroscopic assessment (European Pharmacopoeia 5.11); type: physicochemical
Description: A hygroscopic assessment was performed as described in European Pharmacopoeia 5.11. Results from the assay are interpreted as follows: deliquescent -sufficient water is absorbed to form a liquid; very hygroscopic - increase in mass is equal to or greater than 15%; hygroscopic - increase in mass is less than 15% and equal to or greater than 2%; slightly hygroscopic - increase in mass is less than 2% and equal to or greater than 0.2% and not hygroscopic - if increase in mass is less than 0.2%, then the compound is not hygroscopic.

[10] = 10^4 pfu/mL, 5 sec incubation, 96 hours post-infection, Vero E6
[11] = 10^4 pfu/mL, 10 sec incubation, 96 hours post-infection, Vero E6
[12] = 10^4 pfu/mL, 30 sec incubation, 16 hours post-infection, Vero E6
[13] = 10^4 pfu/mL, 30 sec incubation, 96 hours post-infection, Vero E6
[14] = 10^4 pfu/mL, 1 min incubation, 16 hours post-infection, Vero E6
[15] = 10^4 pfu/mL, 1 min incubation, 96 hours post-infection, Vero E6
[16] = 10^4 pfu/mL, 5 min incubation, 16 hours post-infection, Vero E6
[17] = 10^4 pfu/mL, 10 min incubation, 96 hours post-infection, Vero E6
[18] = 10^4 pfu/mL, 15 min incubation, 16 hours post-infection, Vero E6
[19] = 10^4 pfu/mL, 15 min incubation, 96 hours post-infection, Vero E6
[20] = 10^5 pfu/mL, 5 sec incubation, 96 hours post-infection, Vero E6
[21] = 10^5 pfu/mL, 10 sec incubation, 96 hours post-infection, Vero E6
[22] = 10^5 pfu/mL, 30 sec incubation, 16 hours post-infection, Vero E6
[23] = 10^5 pfu/mL, 30 sec incubation, 96 hours post-infection, Vero E6
[24] = 10^5 pfu/mL, 1 min incubation, 16 hours post-infection, Vero E6
[25] = 10^5 pfu/mL, 1 min incubation, 96 hours post-infection, Vero E6
[26] = 10^5 pfu/mL, 5 min incubation, 16 hours post-infection, Vero E6
[27] = 10^5 pfu/mL, 10 min incubation, 96 hours post-infection, Vero E6
[28] = 10^5 pfu/mL, 15 min incubation, 16 hours post-infection, Vero E6
[29] = 10^5 pfu/mL, 15 min incubation, 96 hours post-infection, Vero E6
[30] = 10^6 pfu/mL, 5 sec incubation, 96 hours post-infection, Vero E6
[31] = 10^6 pfu/mL, 10 sec incubation, 96 hours post-infection, Vero E6
[32] = 10^6 pfu/mL, 30 sec incubation, 96 hours post-infection, Vero E6
[33] = 10^6 pfu/mL, 1 min incubation, 96 hours post-infection, Vero E6
[34] = 10^6 pfu/mL, 10 min incubation, 96 hours post-infection, Vero E6
[35] = 10^6 pfu/mL, 15 min incubation, 96 hours post-infection, Vero E6

astodrimer sodium [SPL7013]
binding of SARS-CoV-2 spike protein to cells expressing the hACE2 receptor [1]: no detectable binding
reduction of infection in the plaque assay [2]: up to 95%
reduction of infection vs virus control by nucleocapsid ELISA [2]: up to 98%
binding/infection of Vero E6 cells by spike-pseudotyped lentivirus (GFP-positive cells, FACS) [3]: potently inhibited
Reduction vs. Virus Control (%) [4, 10]: -35.936%
Reduction vs. Virus Control (Log10± SD) [4, 10]: -0.13 ± 0.21 Log10
Reduction vs. Virus Control (%) [4, 11]: 14.230%
Reduction vs. Virus Control (Log10± SD) [4, 11]: 0.07 ± 0.29 Log10
Reduction vs. Virus Control (%) [4, 12]: 36.904%
Reduction vs. Virus Control (Log10± SD) [4, 12]: 0.20 ± 0.20 Log10
Reduction vs. Virus Control (%) [4, 13]: 20.567%
Reduction vs. Virus Control (Log10± SD) [4, 13]: 0.10 ± 0.10 Log10
Reduction vs. Virus Control (%) [4, 14]: 99.932%
Reduction vs. Virus Control (Log10± SD) [4, 14]: 3.17 ± 0.12 Log10
Reduction vs. Virus Control (%) [4, 15]: 20.567%
Reduction vs. Virus Control (Log10± SD) [4, 15]: 0.10 ± 0.00 Log10
Reduction vs. Virus Control (%) [4, 16]: 99.979%
Reduction vs. Virus Control (Log10± SD) [4, 16]: 3.67 ± 0.21 Log10
Reduction vs. Virus Control (%) [4, 17]: >99.999%
Reduction vs. Virus Control (Log10± SD) [4, 17]: 5.07 ± 0.25 Log10
Reduction vs. Virus Control (%) [4, 18]: 99.990%
Reduction vs. Virus Control (Log10± SD) [4, 18]: 4.00 ± 0.10 Log10
Reduction vs. Virus Control (%) [4, 19]: >99.999%
Reduction vs. Virus Control (Log10± SD) [4, 19]: 5.83 ± 0.12 Log10
Reduction vs. Virus Control (%) [4, 20]: 53.584%
Reduction vs. Virus Control (Log10± SD) [4, 20]: 0.33 ± 0.21 Log10
Reduction vs. Virus Control (%) [4, 21]: 41.566%
Reduction vs. Virus Control (Log10± SD) [4, 21]: 0.23 ± 0.06 Log10
Reduction vs. Virus Control (%) [4, 22]: 0.000%
Reduction vs. Virus Control (Log10± SD) [4, 22]: 0.00 ± 0.36 Log10
Reduction vs. Virus Control (%) [4, 23]: 49.881%
Reduction vs. Virus Control (Log10± SD) [4, 23]: 0.30 ± 0.17 Log10
Reduction vs. Virus Control (%) [4, 24]: 99.767%
Reduction vs. Virus Control (Log10± SD) [4, 24]: 2.63 ± 0.15 Log10
Reduction vs. Virus Control (%) [4, 25]: 65.855%
Reduction vs. Virus Control (Log10± SD) [4, 25]: 0.47 ±0.21 Log10
Reduction vs. Virus Control (%) [4, 26]: 99.998%
Reduction vs. Virus Control (Log10± SD) [4, 26]: 4.63 ± 0.31 Log10
Reduction vs. Virus Control (%) [4, 27]: 99.980%
Reduction vs. Virus Control (Log10± SD) [4, 27]: 3.70 ± 0.26 Log10
Reduction vs. Virus Control (%) [4, 28]: 99.998%
Reduction vs. Virus Control (Log10± SD) [4, 28]: 4.60 ± 0.10 Log10
Reduction vs. Virus Control (%) [4, 29]: 99.998%
Reduction vs. Virus Control (Log10± SD) [4, 29]: 4.60 ± 0.10 Log10
Reduction vs. Virus Control (%) [4, 30]: 20.567%
Reduction vs. Virus Control (Log10± SD) [4, 30]: 0.10 ± 0.20 Log10
Reduction vs. Virus Control (%) [4, 31]: 7.388%
Reduction vs. Virus Control (Log10± SD) [4, 31]: 0.03 ± 0.06 Log10
Reduction vs. Virus Control (%) [4, 32]: 20.567%
Reduction vs. Virus Control (Log10± SD) [4, 32]: 0.10 ± 0.10 Log10
Reduction vs. Virus Control (%) [4, 33]: 53.584%
Reduction vs. Virus Control (Log10± SD) [4, 33]: 0.33 ± 0.12 Log10
Reduction vs. Virus Control (%) [4, 34]: 99.369%
Reduction vs. Virus Control (Log10± SD) [4, 34]: 2.20 ± 0.10 Log10
Reduction vs. Virus Control (%) [4, 35]: 99.979%
Reduction vs. Virus Control (Log10± SD) [4, 35]: 3.67 ± 0.23 Log10
reduction in virus infectivity ([4]; 1 to 30 mg/mL, inoculums 10^4, 10^5 and 10^6 pfu/mL, 10 to 15 minutes exposure): > 99.9%
reduction in virus infectivity ([4]; 10^4 pfu/mL viral inoculum, 10 to 30 mg/mL, 10 to 15 min incubation): > 99.999%
SARS-CoV-2 inactivated ([4]; >10 mg/mL, 10^4 pfu/mL, within as little as 1 minute of exposure, 16 hours post-infection): > 99.9%
reduced infectivity ([4]; Vero E6, 10^6 pfu/mL, incubation 15 to 30 minutes, 10 to 30 mg/mL): > 99.999%
reduction of infectivity ([4]; after 1 minute of exposure to the virus): > 99.9%
virucidal effect ([4]; exposure to virus for 30 seconds): no detectable virucidal effect
CPE in four replicates, Test ([5]; 60 seconds exposure, dilution (-Log10) -6): 0000
CPE in four replicates, Test ([5]; 60 seconds exposure, dilution (-Log10) -7): 0000
Log10 Reduction ([5]; 60 seconds exposure): 0.50 log10
TCID50 (log10), Test ([5]; 60 seconds exposure): 5.25 log10
Percent Reduction ([5]; 60 seconds exposure, listed as SPL7013 aqueous solution): 68.38%
CPE in four replicates, Test ([5]; 60 minutes exposure, dilution (-Log10) -6): 0000
CPE in four replicates, Test ([5]; 60 minutes exposure, dilution (-Log10) -7): 0000
Log10 Reduction ([5]; 60 minutes exposure): 0.75 log10
Percent Reduction ([5]; 60 minutes exposure): 82.22%
TCID50 (log10), Test ([5]; 60 minutes exposure): 5.00 log10
EC50 ([6]; added 1-hour post-infection, Calu-3): 30 µg/mL
EC50 ([6]; added 1-hour post-infection, Vero E6): 19 µg/mL
EC50 ([6]; added 1-hour pre-infection, Calu-3): 37 µg/mL
EC50 ([6]; added 1-hour pre-infection, Vero E6): 32 µg/mL
EC50 ([6]; added at time of infection, Calu-3): 35 µg/mL
EC50 ([6]; added at time of infection, Vero E6): 20 µg/mL
EC50 [7]: 1830 nM
EC50, Best Fit Value ([8]; Post Treatment): 107 µg/mL
EC90, Best Fit Value ([8]; Post Treatment): 1159 µg/mL
EC50, Best Fit Value ([8]; PreTreatment): 45 µg/mL
EC90, Best Fit Value ([8]; PreTreatment): 180 µg/mL
CC50 (Vero E6 cells): 15090 µg/mL
hygroscopicity class [9]: very hygroscopic (increase in mass is equal to or greater than 15%)
increase in mass [9]: 21.97%
